Test results taken from paper PMC3175485 (2011).

Target: PDE4D3 (Homo sapiens, UniProt Q08499)
Experiment: biochemical

Sequence of PDE4D3 (Q08499 1-673 isoform Q08499-2): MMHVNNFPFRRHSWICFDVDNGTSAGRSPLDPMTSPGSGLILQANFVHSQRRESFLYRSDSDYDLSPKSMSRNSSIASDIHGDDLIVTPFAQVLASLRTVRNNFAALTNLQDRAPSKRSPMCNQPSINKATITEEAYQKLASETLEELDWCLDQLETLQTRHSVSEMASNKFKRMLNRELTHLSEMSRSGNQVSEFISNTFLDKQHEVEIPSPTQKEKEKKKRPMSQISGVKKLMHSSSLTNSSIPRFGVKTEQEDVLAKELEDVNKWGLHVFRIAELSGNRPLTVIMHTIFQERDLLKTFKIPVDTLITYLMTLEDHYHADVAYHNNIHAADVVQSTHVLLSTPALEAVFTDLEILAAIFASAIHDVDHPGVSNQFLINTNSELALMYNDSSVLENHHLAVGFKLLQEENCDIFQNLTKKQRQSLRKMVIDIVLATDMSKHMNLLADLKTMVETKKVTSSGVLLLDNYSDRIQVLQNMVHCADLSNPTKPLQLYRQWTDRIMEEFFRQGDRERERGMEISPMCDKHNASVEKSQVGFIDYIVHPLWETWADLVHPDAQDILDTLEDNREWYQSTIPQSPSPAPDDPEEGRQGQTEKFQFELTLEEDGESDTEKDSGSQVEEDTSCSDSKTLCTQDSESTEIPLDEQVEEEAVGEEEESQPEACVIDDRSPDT

Which IC50 does the source give for `COc1ccc(-c2cc(C(F)F)nn2-c2ccc(S(N)(=O)=O)cc2)cc1F` [deracoxib] here?
The IC50 was 3.6 ± 0.5 µM.
